Test [1] concerns E. cloacae A21006. The experiment in a line: MIC in Mueller-Hinton agar, APH(3')-II producer. Type of test: cell-based. Particulars: Enterobacter cloacae; E. cloacae A21006; enzyme produced: APH(3')-II; Mueller-Hinton agar; read-out: MIC. The procedure: (§1) The Minimum Inhibitory Concentrations (MIC's) of BB-K311, amikacin and kanamycin A were determined in Mueller-Hinton agar against a number of kanamycin-sensitive and kanamycin-resistant strains of organisms.

For test [2], the system named is E. coli A20107. The experiment in a line: MIC in Mueller-Hinton agar, APH(3')-II producer. Type of test: cell-based. Particulars: Escherichia coli; E. coli A20107; enzyme produced: APH(3')-II; Mueller-Hinton agar; read-out: MIC. As for the experimental part:
as §1

Test [3] concerns P. stuartii A20615. The experiment in a line: MIC in Mueller-Hinton agar, kanamycin-sensitive strain. Type of test: cell-based. To be noted: Providencia stuartii; P. stuartii A20615; enzyme produced: none; Mueller-Hinton agar; read-out: MIC. The procedure:
as §1

For test [4], the system named is S. marcescens A20019. Described as above. It is filed as cell-based. To be noted: Serratia marcescens; S. marcescens A20019; enzyme produced: none; Mueller-Hinton agar; read-out: MIC. As for the experimental part:
as §1

For test [5], the system named is P. Morganii A20031. The test is described as above. It is filed as cell-based. To be noted: Morganella morganii; P. Morganii A20031; enzyme produced: none; Mueller-Hinton agar; read-out: MIC. As for the experimental part: as §1
Test [6] has as its system E. cloacae A20464. Described as above. To be noted: Enterobacter cloacae; E. cloacae A20464; enzyme produced: none; Mueller-Hinton agar; read-out: MIC. Type of test: cell-based. As for the experimental part:
as §1

The subject of test [7] is P. mirabilis A9900. The description is as above. Type of test: cell-based. Particulars: Proteus mirabilis; P. mirabilis A9900; enzyme produced: none; Mueller-Hinton agar; read-out: MIC. The procedure: as §1
Test [8] relates to P. vulgaris A9526. Described as above. It is filed as cell-based. Particulars: Proteus vulgaris; P. vulgaris A9526; enzyme produced: none; Mueller-Hinton agar; read-out: MIC. As for the experimental part: as §1
Test [9] deals with B. brevis ATCC8185. Described as above. Type of test: cell-based. Particulars: Brevibacillus brevis; B. brevis ATCC8185; enzyme produced: none; Mueller-Hinton agar; read-out: MIC. The procedure: as §1
Test [10] concerns E. coli A9632. The description is as above. Type of test: cell-based. Particulars: Escherichia coli; E. coli A9632; enzyme produced: none; Mueller-Hinton agar; read-out: MIC. As for the experimental part:
as §1

The test system of test [11] is K. pneumoniae A15130. The description is as above. It is filed as cell-based. To be noted: Klebsiella pneumoniae; K. pneumoniae A15130; enzyme produced: none; Mueller-Hinton agar; read-out: MIC. The procedure: as §1
Test [12] concerns S. aureus Smith. The test is described as above. Type of test: cell-based. To be noted: Staphylococcus aureus; S. aureus Smith; enzyme produced: none; Mueller-Hinton agar; read-out: MIC. As for the experimental part: as §1
Test [13] relates to S. aureus A22054. The test can be described thus: MIC in Mueller-Hinton agar, ANT(4')-producing strain. Type of test: cell-based. Particulars: Staphylococcus aureus; S. aureus A22054; ANT(4')-producing; Mueller-Hinton agar; read-out: MIC. As for the experimental part:
as §1

The subject of test [14] is S. epidermidis A22033. The description is as above. Particulars: Staphylococcus epidermidis; S. epidermidis A22033; ANT(4')-producing; Mueller-Hinton agar; read-out: MIC. Type of test: cell-based. As for the experimental part: as §1
Test [15] has as its system B. brevis IFO 12334. Described as above. Particulars: Brevibacillus brevis, IFO12334; B. brevis IFO 12334; ANT(4')-producing; Mueller-Hinton agar; read-out: MIC. Type of test: cell-based. As for the experimental part:
as §1

Test [16] relates to E. coli A20895. The test can be described thus: MIC in Mueller-Hinton agar, AAC(3)-I producer. To be noted: Escherichia coli; E. coli A20895; enzyme produced: AAC(3)-I; Mueller-Hinton agar; read-out: MIC. Type of test: cell-based. As for the experimental part: as §1
Test [17] has as its system aminoglycoside-4'-adenylyltransferase [ANT(4')]. To be noted: background statement; cited from earlier work.
The test system of test [18] is aminoglycoside-6'-acetyltransferase [AAC(6')]. To be noted: background statement; cited from earlier work.
Test [19] has as its system E. cloacae HM-43. The test can be described thus: MIC in Mueller-Hinton agar, AAC(6')-producing strain. Type of test: cell-based. To be noted: Enterobacter cloacae, HM43; E. cloacae HM-43; AAC(6')-producing; Mueller-Hinton agar; read-out: MIC. As for the experimental part:
as §1

Test [20] relates to S. marcescens A21235. The test is described as above. It is filed as cell-based. Particulars: Serratia marcescens; S. marcescens A21235; AAC(6')-producing; Mueller-Hinton agar; read-out: MIC. As for the experimental part: as §1
Test [21] concerns P. aeruginosa GN4925. The test is described as above. It is filed as cell-based. Particulars: Pseudomonas aeruginosa; P. aeruginosa GN4925; AAC(6')-producing; Mueller-Hinton agar; read-out: MIC. The procedure: as §1
In test [22] the test system is S. marcescens A22288. Described as above. It is filed as cell-based. Particulars: Serratia marcescens; S. marcescens A22288; AAC(6')-producing; Mueller-Hinton agar; read-out: MIC. As for the experimental part: as §1
Test [23] has as its system S. aureus A22153. The test is described as above. It is filed as cell-based. To be noted: Staphylococcus aureus; S. aureus A22153; AAC(6')-producing; Mueller-Hinton agar; read-out: MIC. As for the experimental part: as §1
Test [24] concerns S. marcescens A21226. The test is described as above. To be noted: Serratia marcescens; S. marcescens A21226; AAC(6')-producing; Mueller-Hinton agar; read-out: MIC. Type of test: cell-based. The procedure:
as §1

The subject of test [25] is E. coli A2128. Described as above. Particulars: Escherichia coli; E. coli A2128; AAC(6')-producing; Mueller-Hinton agar; read-out: MIC. Type of test: cell-based. The procedure: as §1
Test [26] has as its system S. aureus A22421. Described as above. It is filed as cell-based. Particulars: Staphylococcus aureus; S. aureus A22421; AAC(6')-producing; Mueller-Hinton agar; read-out: MIC. The procedure: as §1
The test system of test [27] is S. marcescens A22382. The test is described as above. Particulars: Serratia marcescens; S. marcescens A22382; AAC(6')-producing; Mueller-Hinton agar; read-out: MIC. Type of test: cell-based. As for the experimental part:
as §1

Test [28] deals with P. rettgeri HM-56. The description is as above. It is filed as cell-based. To be noted: Providencia rettgeri, HM56; P. rettgeri HM-56; AAC(6')-producing; Mueller-Hinton agar; read-out: MIC. As for the experimental part:
as §1

Test [29] has as its system S. epidermidis A22211. The description is as above. It is filed as cell-based. Particulars: Staphylococcus epidermidis; S. epidermidis A22211; AAC(6')-producing; Mueller-Hinton agar; read-out: MIC. The procedure: as §1
Test [30] deals with P. aeruginosa GN315. The test is described as above. Type of test: cell-based. To be noted: Pseudomonas aeruginosa; P. aeruginosa GN315; AAC(6')-producing; Mueller-Hinton agar; read-out: MIC. As for the experimental part:
as §1

Test [31] relates to S. epidermidis A22152. The description is as above. It is filed as cell-based. To be noted: Staphylococcus epidermidis, A22152. The procedure: as §1
In test [32] the test system is microorganisms containing aminoglycoside-inactivating enzymes. Particulars: background statement; cited from earlier work.
In test [33] the test system is E. cloacae A20364. The experiment in a line: MIC in Mueller-Hinton agar, APH(3')-I producer. It is filed as cell-based. Particulars: Enterobacter cloacae; E. cloacae A20364; enzyme produced: APH(3')-I; Mueller-Hinton agar; read-out: MIC. As for the experimental part: as §1
Test [34] relates to E. coli A20363. The test can be described thus: MIC in Mueller-Hinton agar, APH(3')-I producer. It is filed as cell-based. To be noted: Escherichia coli; E. coli A20363; enzyme produced: APH(3')-I; Mueller-Hinton agar; read-out: MIC. As for the experimental part: as §1
In test [35] the test system is E. coli A20732. The test can be described thus: MIC in Mueller-Hinton agar, ANT(2") producer. It is filed as cell-based. Particulars: Escherichia coli; E. coli A20732; enzyme produced: ANT(2"); Mueller-Hinton agar; read-out: MIC. As for the experimental part: as §1
The subject of test [36] is kanamycin phosphotransferase Type-II. Particulars: The Journal of Antibiotics, 27, 722-725 and 838-850 (1974); cited from earlier work.

Values after ≈ are worked out from the molar mass of the structure shown.

The term MIC denotes the smallest concentration in the dilution series that meets the test's criterion for growth inhibition.

Regarding `NCC[C@H](O)C(=O)N[C@@H]1C[C@H](N)[C@@H](O[C@H]2O[C@H](CN)[C@@H](O)[C@H](O)[C@H]2O)[C@H](O)[C@H]1O[C@H]1O[C@H](CO)[C@@H](O)[C@H](N)[C@H]1O` [Amikacin, 1-N-[L-(-)-γ-amino-α-hydroxybutyryl]kanamycin A], the minimal inhibitory concentration (MIC) in test [1] turned out to be 1.6 µg/mL (≈ 2.73 µM); in test [2] it was 1.6 µg/mL (≈ 2.73 µM); in test [3] it was 1.6 µg/mL (≈ 2.73 µM); in [4], 1.6 µg/mL (≈ 2.73 µM); in [5], 1.6 µg/mL (≈ 2.73 µM); in [6], 3.1 µg/mL (≈ 5.29 µM). The MIC in test [7] was 1.6 µg/mL (≈ 2.73 µM); in test [8], 0.8 µg/mL (≈ 1.37 µM); in test [9], 0.8 µg/mL (≈ 1.37 µM); in test [10] it was 0.8 µg/mL (≈ 1.37 µM); in test [11], 1.6 µg/mL (≈ 2.73 µM); in [12], 0.8 µg/mL (≈ 1.37 µM). Further, the MIC in [13] was 6.3 µg/mL (≈ 10.8 µM); in test [14], 6.3 µg/mL (≈ 10.8 µM); in test [15], 6.3 µg/mL (≈ 10.8 µM); in [16], 0.8 µg/mL (≈ 1.37 µM); in [19], > 100 µg/mL; in [20] it was 25 µg/mL (≈ 42.7 µM). The minimum inhibitory concentration (MIC) came to 12.5 µg/mL (≈ 21.3 µM) in test [21]; 6.3 µg/mL (≈ 10.8 µM) in [22]; 12.5 µg/mL (≈ 21.3 µM) in test [23]; 6.3 µg/mL (≈ 10.8 µM) in test [24]; 3.1 µg/mL (≈ 5.29 µM) in [25]; 12.5 µg/mL (≈ 21.3 µM) in test [26]. In addition, the MIC is 12.5 µg/mL (≈ 21.3 µM) in [27]; > 100 µg/mL in [28]; 12.5 µg/mL (≈ 21.3 µM) in test [29]; 50 µg/mL (≈ 85.4 µM) in [30]; 3.1 µg/mL (≈ 5.29 µM) in test [31]; 3.1 µg/mL (≈ 5.29 µM) in [33]. The MIC in test [34] came to 1.6 µg/mL (≈ 2.73 µM); in test [35], 0.8 µg/mL (≈ 1.37 µM). Besides, in [17], the “susceptibility to ANT(4')” value is given as “still susceptible”. Further, in test [18], the “susceptibility to AAC(6')” value was “still susceptible”. Besides, the “effectiveness against enzyme-containing microorganisms” value in [32] is “effective against a wide variety of microorganisms containing aminoglycoside-inactivating enzymes”.
As to `NCC1CC(O)C(O)C(OC2C(N)CC(N)C(OC3OC(CO)C(O)C(N)C3O)C2O)O1` (stereo not drawn) [4'-deoxykanamycin], in test [36], the “resistance to kanamycin phosphotransferase Type-II” value is reported as “resistance to kanamycin phosphotransferase Type-II”.

The values are drawn from US4181797A, “1-N-(ω-amino-α-hydroxyalkanoyl) derivatives of 4'-deoxy-6'-N-methylkanamycin A” (Bristol-Myers Company, priority 1978, dated 1980).
